Measured values taken from PMC3828267 (PLoS ONE, 2013).
Read-outs that look alike come from different tables or passages of the source.

How the values were obtained:
α7 AChRs [1] = biological target: T1, α7 AChRs (Homo sapiens, UniProt P36544); details: α7, antagonist 10 µM applied after 10 minutes
Procedure: (§1) Responses were monitored for 10 minutes, and then specific antagonists were added and responses recorded for another two minutes.

α3β4 AChRs [2] = biological target: T2, α3β4 AChRs (Homo sapiens, UniProt P30926+P32297); assay: Smoldering activation following acute desensitization, α3β4; format: cell-based; details: α3β4, antagonist 10 µM applied after 10 minutes
T2 construct: expressed in transfected cells
Procedure: as §1

human α4β2 AChRs [3] = biological target: T3, human α4β2 AChRs (Homo sapiens, UniProt P17787+P43681); assay: Acute activation, FLEXStation membrane potential dye, α4β2 cell line; format: cell-based
T3 construct: expressed in transfected cells
Procedure: (§2) The parental cell line used for transfections was tsA201, derived from the human embryonic kidney cell line (HEK) 293 [33]. […] The cell line permanently expressing α3β4 AChRs has been described, [34]. A stable cell line expressing functional α7 AChRs was prepared by initially transfecting the tsA201 cell line with cDNA for α7 and subsequently transfecting with cDNA for the AChR-selective chaperone, human RIC-3.
(§3) Responses to nicotinic agonists were determined using a FLEXStation microplate fluorometer (Molecular Devices, Sunnyvale, CA) as described. For cell lines expressing α4β2 and α3β4 AChRs, the cells were plated at 10^5 cells/ml (100 µl/well) in black-walled clear-bottom 96 well plates (Costar, Fisher Scientific, Pittsbugh, PA), and incubated for 48 hours prior to assaying responses to various nicotinic agonists. The α7/RIC-3 expressing cells were plated at 5×10^5/ml in black-walled clear-bottom 96 well BioCoat plates (BD Biosciences, Franklin Lakes, NJ) in the continued presence of VPA and PBA, with the addition of 5% human AB serum (Pel-Freez Biologicals, Rogers, AR) to further increase expression of α7 [35]. The cells were then grown for 24 hours prior to the assay.
(§4) To measure responses to various nicotinic agonists, 100 µl of a fluorescent dye which is sensitive to changes in membrane potential (Molecular Devices) was added to the wells. The dye was prepared according to the manufacturer’s instructions, with the addition of atropine (0.5 µM) to block muscarinic responses. The plates were then incubated at 37°C for one hour prior to the assay. Serial dilutions of agonists were then prepared in Hanks Balanced Salt Solution (HBSS) in V-shaped 96-well plates (Fisher Scientific Co, Pittsburgh, PA). Fluorescent responses were measured in the FLEX Station at 25°C, with an excitation wavelength of 530 nm and an emission wavelength of 565 nm. Various agonists (50 µl) were added after the first 20 seconds and responses were followed for 60–120 seconds.
(§5) Data were graphed using GraphPad Prism software. Non-linear models (sigmoidal dose-response with variable slope or two site competition) were used to fit the concentration response curves. The EC50 and IC50 were calculated from the curves. Kaleidagraph software was used to determine Hill slopes and standard errors of the EC50 and IC50.

α3β4 AChRs [4] = biological target: T2, α3β4 AChRs; assay: Acute activation, FLEXStation membrane potential dye, α3β4 cell line; format: cell-based; details: α3β4
Procedure: as §2, §3, §4, §5

human α4β2 AChRs [5] = biological target: T3, human α4β2 AChRs; assay: Chronic desensitization (16 h agonist, then ACh response) and calculated smoldering activation, α4β2 cell line; format: cell-based; details: for IC50: overnight (16 h) agonist, first (more sensitive) component, read-out: Desensitization IC50; for Hill (desensitization): first component
Procedure: (§6) To measure desensitization, plates were prepared as for agonist assays. Sixteen hours prior to the assay, serial dilutions of agonists, prepared in regular growth medium, were added to the plates. One hour before the assay, the membrane potential-sensitive fluorescent dye with 0.5 µM atropine was added to the wells. […] Each data point represents the average of peak values for individual dose response curves from 4–8 wells.
as §5
(§7) Responses for the three different AChRs are shown in Figures 3, 4, 5, 6, along with the dose response curves for activation (the same as shown in Figure 2). The range of concentrations at which both sustained activation and desensitization can occur (“smoldering activation”) was calculated by multiplying the acute response to agonists at each concentration by the fractional response remaining after desensitization.

α3β4 AChRs [6] = biological target: T2, α3β4 AChRs; assay: Chronic desensitization (16 h agonist, then ACh response) and calculated smoldering activation, α3β4 cell line; format: cell-based; details: α3β4: 1.0 mM ACh
Procedure: as §6, §5, §7

(α4β2)2β2 AChRs [7] = biological target: T4, (α4β2)2β2 AChRs (Homo sapiens, UniProt P17787+P43681); assay: Sazetidine-A desensitization of α4β2 cell line enriched for (α4β2)2β2 by β2 transfection and nicotine; format: cell-based; details: 6 h sazetidine-A, 3 µM and 100 µM ACh curves overlapped
T4 construct: expressed in transfected cells
Text: To determine which stoichiometry of α4β2 AChRs was affected by sazetidine-A, we performed short term transfection of β2 subunits into the α4β2 expressing cell line. To increase the expression of the higher sensitivity (α4β2)2β2 stoichiometry, the cell line expressing α4 and β2 was cotransfected with human β2 (pRc-CMV/Geneticin) using the FuGene6 transfection agent (Roche Diagnostics, Indianapolis, IN).

[8] = design: method as in PMID 22899751; details: mice treated with 2 mg/kg; cited from earlier work
(α4β2)2α4 AChRs = details: cited from earlier work
(α4β2)2β2 AChRs [9] = biological target: T4, (α4β2)2β2 AChRs; details: cited from earlier work
α7 AChRs [10] = biological target: T1, α7 AChRs; assay: Acute activation, FLEXStation membrane potential dye, α7/RIC-3 cell line; format: cell-based; design: expressed in transfected cells; grown in VPA and PBA; details: α7
Procedure: as §2, §3, §4, §5

α7 AChRs [11] = biological target: T1, α7 AChRs; assay: Chronic desensitization (16 h agonist, then ACh response) and calculated smoldering activation, α7 cell line; format: cell-based; design: expressed in transfected cells; grown in VPA and PBA; details: α7: 10 µM ACh
Procedure: as §6, §5, §7

[12] = overnight (16 h) agonist, read-out: Desensitization IC50

T2 sequence (P32297 32-505): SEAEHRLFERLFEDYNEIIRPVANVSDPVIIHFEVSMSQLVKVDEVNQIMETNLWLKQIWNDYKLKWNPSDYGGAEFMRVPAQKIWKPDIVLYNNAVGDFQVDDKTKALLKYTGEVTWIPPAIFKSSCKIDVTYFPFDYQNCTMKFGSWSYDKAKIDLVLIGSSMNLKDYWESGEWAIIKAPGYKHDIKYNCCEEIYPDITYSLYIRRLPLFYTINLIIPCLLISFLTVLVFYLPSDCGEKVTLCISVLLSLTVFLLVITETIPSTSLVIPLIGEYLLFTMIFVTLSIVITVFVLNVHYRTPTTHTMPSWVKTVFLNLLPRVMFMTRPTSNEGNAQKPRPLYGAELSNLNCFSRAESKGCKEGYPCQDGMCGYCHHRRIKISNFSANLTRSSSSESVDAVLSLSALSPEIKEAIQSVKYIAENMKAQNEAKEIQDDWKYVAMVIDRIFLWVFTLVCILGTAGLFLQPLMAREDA
T2 sequence (P30926 22-498): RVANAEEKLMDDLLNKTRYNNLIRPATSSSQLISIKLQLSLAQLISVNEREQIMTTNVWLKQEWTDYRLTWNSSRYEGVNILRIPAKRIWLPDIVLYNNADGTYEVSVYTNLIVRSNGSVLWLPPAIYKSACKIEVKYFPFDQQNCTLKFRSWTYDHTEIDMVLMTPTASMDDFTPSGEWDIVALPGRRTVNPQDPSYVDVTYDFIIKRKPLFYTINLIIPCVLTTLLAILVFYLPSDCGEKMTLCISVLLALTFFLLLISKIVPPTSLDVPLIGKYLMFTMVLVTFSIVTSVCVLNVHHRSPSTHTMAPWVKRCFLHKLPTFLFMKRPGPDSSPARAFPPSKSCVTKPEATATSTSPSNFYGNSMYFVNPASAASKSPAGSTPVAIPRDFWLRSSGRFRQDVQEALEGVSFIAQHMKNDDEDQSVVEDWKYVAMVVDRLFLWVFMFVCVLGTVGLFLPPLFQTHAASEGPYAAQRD
T1 sequence (P36544 23-502): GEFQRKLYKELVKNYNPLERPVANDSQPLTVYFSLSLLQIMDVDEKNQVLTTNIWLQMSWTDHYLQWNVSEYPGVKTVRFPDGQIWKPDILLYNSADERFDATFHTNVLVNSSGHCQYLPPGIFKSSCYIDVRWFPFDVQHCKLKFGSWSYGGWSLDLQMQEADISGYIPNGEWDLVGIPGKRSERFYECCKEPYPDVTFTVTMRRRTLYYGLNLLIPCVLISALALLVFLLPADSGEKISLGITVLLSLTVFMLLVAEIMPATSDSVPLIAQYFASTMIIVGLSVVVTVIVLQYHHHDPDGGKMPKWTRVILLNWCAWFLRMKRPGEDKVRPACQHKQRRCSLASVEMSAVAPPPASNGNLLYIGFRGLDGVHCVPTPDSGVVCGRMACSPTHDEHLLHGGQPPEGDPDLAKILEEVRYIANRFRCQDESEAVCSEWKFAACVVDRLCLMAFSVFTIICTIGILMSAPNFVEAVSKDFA
T4 sequence (P43681 29-627 limits assumed): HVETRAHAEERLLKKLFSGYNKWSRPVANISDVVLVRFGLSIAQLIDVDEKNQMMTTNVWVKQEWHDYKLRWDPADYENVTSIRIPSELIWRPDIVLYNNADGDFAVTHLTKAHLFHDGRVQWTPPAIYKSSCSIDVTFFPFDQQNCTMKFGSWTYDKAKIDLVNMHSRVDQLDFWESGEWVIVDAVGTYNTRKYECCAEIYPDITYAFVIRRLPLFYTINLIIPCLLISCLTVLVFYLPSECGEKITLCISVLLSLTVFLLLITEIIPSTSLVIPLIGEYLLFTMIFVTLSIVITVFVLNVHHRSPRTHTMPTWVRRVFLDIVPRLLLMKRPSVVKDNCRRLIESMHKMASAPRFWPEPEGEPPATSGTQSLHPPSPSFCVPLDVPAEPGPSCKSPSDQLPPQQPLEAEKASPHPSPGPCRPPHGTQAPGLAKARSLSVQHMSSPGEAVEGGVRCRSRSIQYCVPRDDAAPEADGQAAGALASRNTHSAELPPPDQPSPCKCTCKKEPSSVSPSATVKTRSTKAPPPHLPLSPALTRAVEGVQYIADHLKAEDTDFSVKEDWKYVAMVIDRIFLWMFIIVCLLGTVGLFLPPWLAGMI
T4 sequence (P17787 26-502): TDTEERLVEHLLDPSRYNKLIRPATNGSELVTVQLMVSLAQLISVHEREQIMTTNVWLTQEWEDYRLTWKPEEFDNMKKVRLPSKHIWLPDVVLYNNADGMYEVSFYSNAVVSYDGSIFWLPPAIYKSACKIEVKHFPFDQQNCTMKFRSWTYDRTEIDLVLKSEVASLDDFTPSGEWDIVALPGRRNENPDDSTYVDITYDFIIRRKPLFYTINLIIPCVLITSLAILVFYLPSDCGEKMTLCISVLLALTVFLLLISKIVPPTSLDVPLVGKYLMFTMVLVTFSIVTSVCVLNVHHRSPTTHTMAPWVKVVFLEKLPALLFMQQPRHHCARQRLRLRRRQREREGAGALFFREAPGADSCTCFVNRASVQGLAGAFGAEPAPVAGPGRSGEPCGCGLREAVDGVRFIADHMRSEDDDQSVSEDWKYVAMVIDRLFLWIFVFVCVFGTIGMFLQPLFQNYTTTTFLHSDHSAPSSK
T3 sequence (P43681 29-627 limits assumed): as the sequence (P43681 29-627 limits assumed) above
T3 sequence (P17787 26-502): as the sequence (P17787 26-502) above

For `CCN1C[C@]2(COC(=O)c3ccccc3N3C(=O)C[C@H](C)C3=O)CC[C@H](OC)[C@@]34[C@@H]5C[C@H]6[C@H](OC)[C@@H]5[C@](O)(C[C@@H]6OC)[C@@](O)([C@@H](OC)[C@H]23)[C@@H]14` [MLA, methyllycaconitine], the “Effect of antagonist on residual agonist response” value (α7 AChRs [1]) was “abrogated”.

For `CNC1(C)C2CCC(C2)C1(C)C` (stereo not shown) [MCA, mecamylamine], the “Effect of antagonist on sustained agonist response” value (α3β4 AChRs [2]) was “abrogated”.

In the case of `OCCCCC#Cc1cncc(OC[C@@H]2CCN2)c1` [Sazetidine-A], the “Efficacy (%) (relative to ACh)” value (human α4β2 AChRs [3]; α4β2) is reported as 44%, the “Agonist type (full or partial)” value (human α4β2 AChRs [3]; α4β2, mixture of stoichiometries) is reported as “partial agonist” and the “Hill (activation)” value (human α4β2 AChRs [3]; α4β2, higher sensitivity component or monophasic curve) is reported as 1.2. For the same molecule, the EC50 (human α4β2 AChRs [3]; α4β2 cell line, mixed stoichiometries, higher sensitivity component where two-site fit, else monophasic, read-out: Activation EC50) was 2.3 ± 0.3 nM, the “Agonist type (full or partial)” value (α3β4 AChRs [4]) was “full agonist” and the “Efficacy (%) (relative to ACh)” value (α3β4 AChRs [4]) was 100%. The “Hill (activation)” value (α3β4 AChRs [4]) was 1.3, the EC50 (α3β4 AChRs [4]; read-out: Activation EC50) was 170 ± 30 nM and the “Area of overlap of activation and desensitization curves centered at” value (human α4β2 AChRs [5]; (α4β2)2β2 AChRs, 3 µM ACh) was 1.5 nM. The “Extent of desensitization of α4β2 AChRs to ACh” value (human α4β2 AChRs [5]; prolonged exposure, up to high concentrations) was “full desensitization was not reached even at high concentrations”, the “Concentration from which the desensitization dose response curve shows a plateau” value (human α4β2 AChRs [5]; α4β2, assayed with 100 µM ACh) was “around 10 nM” and the “Intercept of Activation and Desensitization Curves” value (“Intercept” below) (human α4β2 AChRs [5]; α4β2: 3 µM ACh ((α4β2)2β2 stoichiometry), centre of smoldering activation) was 0.0015 µM. For the same molecule, the “Intercept” value (human α4β2 AChRs [5]; α4β2: 3 µM ACh ((α4β2)2β2 stoichiometry), centre of smoldering activation, listed as sazetidine-A) was “around 0.0015 µM”, the IC50 (human α4β2 AChRs [5]; α4β2: 3 µM ACh) was 0.48 ± 0.02 nM and the “Hill (desensitization)” value (human α4β2 AChRs [5]; α4β2: 3 µM ACh) was −0.9. The “Intercept” value (human α4β2 AChRs [5]; α4β2: 100 µM ACh (both stoichiometries)) was 0.002 µM, the IC50 (human α4β2 AChRs [5]; α4β2: 100 µM ACh) was 0.26 ± 0.2 nM and the “Hill (desensitization)” value (human α4β2 AChRs [5]; α4β2: 100 µM ACh) was −0.6. For the same molecule, the “Hill (desensitization)” value (α3β4 AChRs [6]) was −0.5, the IC50 (α3β4 AChRs [6]; [12]) was 330 ± 100 nM and the “Stoichiometry of α4β2 desensitized” value ((α4β2)2β2 AChRs [7]) was “desensitizes only the (α4β2)2β2 stoichiometry”. For the same molecule, the Brain levels [8] was 150 nM, the Serum levels [8] was 1600 nM and the Activity ((α4β2)2α4 AChRs; (α4β2)2α4, Xenopus oocytes expressing human α4 and β2 subunits) was 6%. The Agonist type ((α4β2)2α4 AChRs; (α4β2)2α4, concatenated AChRs in Xenopus oocytes) was “partial agonist with very low efficacy”, the Efficacy ((α4β2)2α4 AChRs; (α4β2)2α4 stoichiometry, concatenated AChRs in Xenopus oocytes) was < 1% and the Agonist type ((α4β2)2β2 AChRs [9]; (α4β2)2β2, Xenopus oocytes expressing human α4 and β2 subunits) was “full agonist”. For the same molecule, the Agonist type ((α4β2)2β2 AChRs [9]; (α4β2)2β2, concatenated AChRs in Xenopus oocytes) was “full agonist”, the “Agonist type (full or partial)” value (α7 AChRs [10]) was “full agonist” and the “Efficacy (%) (relative to ACh)” value (α7 AChRs [10]) was 100%. The “Hill (activation)” value (α7 AChRs [10]) was 1.6, the EC50 (α7 AChRs [10]; read-out: Activation EC50) was 1200 ± 80 nM and the “Hill (desensitization)” value (α7 AChRs [11]) was −2.9. The “Intercept” value (α7 AChRs [11]) was 1.5 µM and the IC50 (α7 AChRs [11]; [12]) was 3500 ± 400 nM.
